From the supplement of paper PMC10307832

Key:
Test in all cases: relative viability (nuclei count vs DMSO), 5 days (fraction); higher = more cells survive
Zosuquidar + Alpelisib = compound: O[C@@H](COc1cccc2ncccc12)CN1CCN([C@@H]2c3ccccc3[C@@H]3[C@H](c4ccccc42)C3(F)F)CC1 [Zosuquidar] + Cc1nc(NC(=O)N2CCC[C@H]2C(N)=O)sc1-c1ccnc(C(C)(C)C(F)(F)F)c1 [Alpelisib] (partner 2 µM)
Method in brief: (§1)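 Relative viability divides the nuclei count in treated wells by that in vehicle wells. Lung cancer cell lines were seeded in 1536-well plates, dosed by pin tool the next day, and fixed and stained after 5 days in one step with final 0.05% Triton X-100, 1% formaldehyde and 1 ug/ml Hoechst. Dosing was a single drug or a fixed anchor-drug dose plus five library-drug doses (not always all listed) in √10 steps, and values are medians of duplicate plates imaged at 4×.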

Zosuquidar + Crizotinib = compound: O[C@@H](COc1cccc2ncccc12)CN1CCN([C@@H]2c3ccccc3[C@@H]3[C@H](c4ccccc42)C3(F)F)CC1 [Zosuquidar] + C[C@@H](Oc1cc(-c2cnn(C3CCNCC3)c2)cnc1N)c1c(Cl)ccc(F)c1Cl [Crizotinib] (partner 1 µM)
Method in brief: as §1

Zosuquidar + OSI-027 = compound: O[C@@H](COc1cccc2ncccc12)CN1CCN([C@@H]2c3ccccc3[C@@H]3[C@H](c4ccccc42)C3(F)F)CC1 [Zosuquidar] + COc1cccc2cc(-c3nc([C@H]4CC[C@H](C(=O)O)CC4)n4ncnc(N)c34)[nH]c12 [OSI-027] (partner 0.5 µM)
Method in brief: as §1

Zosuquidar + Foretinib = compound: O[C@@H](COc1cccc2ncccc12)CN1CCN([C@@H]2c3ccccc3[C@@H]3[C@H](c4ccccc42)C3(F)F)CC1 [Zosuquidar] + COc1cc2c(Oc3ccc(NC(=O)C4(C(=O)Nc5ccc(F)cc5)CC4)cc3F)ccnc2cc1OCCCN1CCOCC1 [Foretinib] (partner 0.25 µM)
Method in brief: as §1

Cell Line | relative viability (Zosuquidar + Alpelisib; first compound 0.01 µM) | relative viability (Zosuquidar + Alpelisib; first compound 0.03162 µM) | relative viability (Zosuquidar + Alpelisib; first compound 0.1 µM) | relative viability (Zosuquidar + Alpelisib; first compound 0.3162 µM) | relative viability (Zosuquidar + Alpelisib; first compound 1 µM) | relative viability (Zosuquidar + Crizotinib; first compound 0.01 µM) | relative viability (Zosuquidar + Crizotinib; first compound 0.03162 µM) | relative viability (Zosuquidar + Crizotinib; first compound 0.1 µM) | relative viability (Zosuquidar + Crizotinib; first compound 0.3162 µM) | relative viability (Zosuquidar + Crizotinib; first compound 1 µM) | relative viability (Zosuquidar + OSI-027; first compound 0.01 µM) | relative viability (Zosuquidar + OSI-027; first compound 0.03162 µM) | relative viability (Zosuquidar + OSI-027; first compound 0.1 µM) | relative viability (Zosuquidar + OSI-027; first compound 0.3162 µM) | relative viability (Zosuquidar + OSI-027; first compound 1 µM) | relative viability (Zosuquidar + Foretinib; first compound 0.01 µM) | relative viability (Zosuquidar + Foretinib; first compound 0.03162 µM) | relative viability (Zosuquidar + Foretinib; first compound 0.1 µM) | relative viability (Zosuquidar + Foretinib; first compound 0.3162 µM) | relative viability (Zosuquidar + Foretinib; first compound 1 µM)
201T | 0.891 | 0.965 | 0.896 | 1.01 | 1.06 | 0.986 | 0.891 | 0.996 | 0.983 | 1.04 | 0.777 | 0.722 | 0.646 | 0.803 | 0.741 | 1.16 | 1.17 | 0.935 | 1.04 | 1.19
A549 | 0.688 | 0.745 | 0.678 | 1.03 | 0.877 | 0.805 | 0.738 | 0.844 | 0.722 | 0.765 |  |  |  |  |  | 0.879 | 0.84 | 0.906 | 0.983 | 0.956
A-427 | 1.08 | 1.01 | 0.902 | 1.07 | 1.04 | 0.851 | 0.911 | 0.784 | 0.957 | 0.858 | 0.409 | 0.511 | 0.4 | 0.507 | 0.501 | 1.1 | 0.983 | 0.96 | 1.18 | 1.06
ABC-1 | 0.949 | 1.07 | 1.06 | 0.994 | 1.16 | 1.19 | 1.17 | 1.41 | 1.31 | 1.08 | 0.479 | 0.426 | 0.607 | 0.54 | 0.509 | 0.926 | 1.03 | 1.17 | 1.32 | 0.95
BEN | 1.07 | 0.968 | 0.815 | 1 | 1.21 | 1.01 | 0.923 | 0.827 | 0.821 | 0.77 | 0.31 | 0.297 | 0.288 | 0.301 | 0.313 | 0.724 | 0.55 | 0.592 | 0.61 | 0.524
CAL-12T | 1.17 | 1.13 | 1.16 | 1.41 | 1.13 | 0.51 | 0.676 | 0.719 | 0.747 | 0.497 | 0.715 | 0.867 | 0.478 | 0.951 | 0.562 | 1.12 | 1.18 | 0.978 | 1.18 | 1.02
COR-L23 | 0.88 | 0.783 | 0.789 | 0.902 | 0.723 | 0.661 | 0.699 | 0.787 | 0.647 | 0.716 | 0.738 | 0.702 | 0.688 | 0.858 | 0.757 | 0.994 | 0.926 | 0.956 | 0.962 | 1.06
COR-L 105 | 1.07 | 0.852 | 1.11 | 1.07 | 1.12 | 0.953 | 0.727 | 0.788 | 0.838 | 0.73 | 0.595 | 0.679 | 0.519 | 0.79 | 0.613 | 0.865 | 0.888 | 1.29 | 1.04 | 0.899
Calu-6 | 0.938 | 0.972 | 1.01 | 1.12 | 0.879 | 0.872 | 0.764 | 0.879 | 0.844 | 0.791 |  |  |  |  |  | 0.842 | 0.916 | 1.03 | 0.942 | 0.902
ChaGo-K-1 |  |  |  |  |  | 1.08 | 1.2 | 1.32 | 1.1 | 1.13 | 0.595 | 0.479 | 0.644 | 0.553 | 0.522 | 0.905 | 0.994 | 0.873 | 0.909 | 0.943
EBC-1 | 0.83 | 0.842 | 0.794 | 1.09 | 0.779 | 0.193 | 0.214 | 0.201 | 0.201 | 0.205 |  |  |  |  |  | 0.121 | 0.106 | 0.093 | 0.095 | 0.097
EKVX | 0.887 | 0.846 | 0.634 | 0.781 | 0.94 | 0.951 | 1.01 | 0.883 | 0.995 | 0.705 | 0.743 | 0.622 | 0.536 | 0.707 | 0.762 | 0.692 | 0.734 | 0.589 | 0.954 | 0.748
EMC-BAC-2 | 0.715 | 0.793 | 0.677 | 0.82 | 0.761 | 0.78 | 0.724 | 0.767 | 0.843 | 0.765 | 0.365 | 0.365 | 0.373 | 0.435 | 0.376 | 0.965 | 1.11 | 0.995 | 1.06 | 0.985
EPLC-272H | 0.946 | 0.999 | 0.801 | 0.936 | 0.805 | 0.899 | 0.901 | 0.97 | 0.813 | 0.751 | 0.275 | 0.335 | 0.273 | 0.31 | 0.275 | 0.778 | 0.683 | 0.57 | 0.817 | 0.671
